Consider 5 molecules from patent US8217028B2, “1,2,4-oxadiazole indole compounds” (Glaxo Group Limited, priority 2008, dated 2012).

For orientation: EC50 means the concentration giving half of the maximal effect. Low readings indicate a more potent agent, high ones a less potent agent.

The target in the experiment is T1, human S1P1 receptor (EDG1) (Homo sapiens, UniProt P21453).
T1 construct: expressed in transfected cells; host or cells: rat hepatoma cells (membranes, GTPγS assay) or Tango GPCR-bla U2OS cells (Tango assay)
T1 sequence (P21453 whole entry): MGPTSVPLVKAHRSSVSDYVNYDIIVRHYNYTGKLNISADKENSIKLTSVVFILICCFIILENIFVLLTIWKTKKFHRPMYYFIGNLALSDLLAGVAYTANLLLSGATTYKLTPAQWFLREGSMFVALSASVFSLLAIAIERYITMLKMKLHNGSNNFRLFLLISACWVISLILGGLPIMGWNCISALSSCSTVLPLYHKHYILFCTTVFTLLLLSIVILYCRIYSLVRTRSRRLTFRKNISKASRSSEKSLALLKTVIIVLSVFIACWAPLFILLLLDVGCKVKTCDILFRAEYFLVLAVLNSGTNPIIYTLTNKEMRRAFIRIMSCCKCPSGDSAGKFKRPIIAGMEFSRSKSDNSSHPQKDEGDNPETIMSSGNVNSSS
Briefly: S1P1 GTPγS assay or S1P1 Tango assay (at least one of the above assays). The following applies: in at least one of the S1P1 GTPγS and S1P1 Tango assays. It counts as cell-based. As to the method:
For membrane preparations all steps were performed at 4° C. Rat hepatoma cells stably expressing the human S1P1 receptor or Rat Basophilic Leukaemia cells (RBL) stably expressing human S1P3 receptor were grown to 80% confluency before being harvested into 10 ml Phospho-Buffered Saline (PBS) and centrifuged at 1200 rpm for 5 minutes. After removal of the supernatant, the pellet was re-suspended and cells were homogenised within a glass Warning blender for 2 bursts of 15 secs in 200 mls of buffer (50 mM HEPES, 1 mM leupeptin, 25 μg/ml bacitracin, 1 mM EDTA, 1 mM PMSF, 2 μM pepstatin A). The blender was plunged into ice for 5 mins after the first burst and 10-40 mins after the final burst to allow foam to dissipate. The material was then spun at 500 g for 20 mins and the supernatant spun for 36 mins at 48,000 g. The pellet was resuspended in the same buffer as above but without PMSF and pepstatin A. The material was then forced through a 0.6 mm needle, made up to the required volume, (usually ×4 the volume of the original cell pellet), aliquoted and stored frozen at −80° C.
Human S1P1 rat hepatoma membranes (1.5 μg/well) were adhered to a wheatgerm agglutinin (WGA)-coated scintillation proximity assay (SPA) beads (0.125 mg/well) in assay buffer (HEPES 20 mM, MgCl2 10 mM, NaCl 100 mM and pH adjusted to 7.4 using KOH 5M, GDP 10 μM FAC (final assay concentration) and saponin 90 μg/ml FAC was also added).
After 30 minutes pre-coupling on ice the bead and membrane suspension was dispensed into a white Greiner polypropylene LV384-well plate (5 μl/well), containing 0.1 μl of the compound. 5 μl/well [^35S]-GTPγS (0.5 nM final radioligand conc) made up in assay buffer was then added to agonist plates. The final assay cocktail (10.1 μl) was then centrifuged at 1000 rpm for 5 minutes then read immediately on a Viewlux reader.
All test compounds were dissolved in DMSO at a concentration of 10 mM and were prepared in 100% DMSO using a 1 in 4 dilution step to provide 11 point dose response curves. The dilutions were transferred to the assay plates ensuring that the DMSO concentration was constant across the plate for all assays. All data was normalized to the mean of 16 high and 16 low control wells on each plate. A four parameter curve fit was then applied.
Recombinant EDG1-bla/U2OS cells (contain the human Endothelial Differentiation Gene 1 (EDG1) linked to a TEV protease site and a Ga14-VP16 transcription factor stably integrated into the Tango GPCR-bla U2OS parental cell line) were suspended in assay medium (Invitrogen Freestyle Expression Medium) at a density of 312, 500 cells/ml. Add 100 μl/well of the assay medium to the cell-free control wells (column 12) and 100 μl/well of the cell suspension to the test compound wells (row 2-8, column 1-10), the unstimulated control wells (DMSO) (column 11), and stimulated control wells (S1P) (row 1, column 1-10) in a Corning black-well, clear bottom 96-well plate. Cells were incubated at 37° C., 5% CO2 for 44-48 h. […]
After incubation at 37° C., 5% CO2 for 5 h, 25 μl of 6× substrate mixture (6 μl Solution A (1 mg LiveBLAzer™-FRET B/G substrate (CCF4-AM) in 912 μl DMSO) plus 60 μl Solution B plus 934 μl Solution C) was added to each well and incubate at room temperature for 2 h in dark. The plate was finally read on EnVision for two emission channels (460 nm and 530 nm). […]

`CC(C)Oc1ccc(-c2nc(-c3ccc4[nH]c(C(=O)O)cc4c3)no2)cc1Cl` [Example 8, Sodium 5-(5-{3-chloro-4-[(1-methylethyl)oxy]phenyl}-1,2,4-oxadiazol-3-yl)-1H-indole-2-carboxylate]: the EC50 was less than 10 µM. To `CC(C)Oc1ncc(-c2nc(-c3ccc4c(CN5CCC(C(=O)O)CC5)c[nH]c4c3)no2)cc1Cl` [Example 78, 1-{[6-(5-{5-chloro-6-[(1-methylethyl)oxy]-3-pyridinyl}-1,2,4-oxadiazol-3-yl)-1H-indol-3-yl]methyl}-4-piperidinecarboxylic acid] belongs less than 10 µM; to `COc1ccc(-c2nc(-c3cccc4c(CCC(=O)O)cn(C)c34)no2)cc1OC` [Example 44, 3-(7-{5-[3,4-bis(methyloxy)phenyl]-1,2,4-oxadiazol-3-yl}-1-methyl-1H-indol-3-yl)propanoic acid], less than 10 µM; to `CC(C)Cn1cc(CCC(=O)O)c2cccc(-c3noc(-c4ccc(OC(C)C)c(Cl)c4)n3)c21` [Example 30, 3-[7-(5-{3-chloro-4-[(1-methylethyl)oxy]phenyl}-1,2,4-oxadiazol-3-yl)-1-(2-methylpropyl)-1H-indol-3-yl]propanoic acid], less than 10 µM. For `CCCCn1cc(CCC(=O)O)c2cccc(-c3noc(-c4ccc(OC(C)C)c(Cl)c4)n3)c21` [Example 29, 3-[1-butyl-7-(5-{3-chloro-4-[(1-methylethyl)oxy]phenyl}-1,2,4-oxadiazol-3-yl)-1H-indol-3-yl]propanoic acid] the value was less than 10 µM.
